Reference: patent publication US20050096327A1, “Novel norepinephrine reuptake inhibitors for the treatment of central nervous system disorders” (priority 2003, published 2005)
pKi: −log10 of the molar value.

Assays:
[1] = molecular target: T1, human norepinephrine transporter (Homo sapiens, UniProt P23975); test: hNET receptor binding ([125I]-RTI-55, membranes of transfected HEK-293 cells); conditions: 50 pM [125I]-RTI-55, 90 min room temperature; IC50 converted by Cheng-Prusoff
T1 construct: host or cells: HEK-293
Protocol: (§1) Cell pastes of HEK-293 cells transfected with the human norepinephrine transporter were supplied by the Pfizer Ann Arbor Protein Expression and Production group. Pellets were resuspended in 400 to 700 ml of Krebs-HEPES assay buffer (25 mM HEPES, 122 mM NaCl, 3 mM KCl, 1.2 mM MgSO4, 1.3 mM CaCl2, and 11 mM glucose, pH 7.4) with a Polytron homogenizer at setting 7 for 30 sec. Aliquots of membranes (5 mg/ml protein) were stored in liquid nitrogen until used.
The binding assay was set up in Beckman deep-well polypropylene plates with a total volume of 250 μl containing: drug (10^−5M to 10^−12M), cell membranes, and 50 pM [^125I]-RTI-55 (Perkin Elmer, NEX-272; specific activity 2200 Ci/mmol). The reaction was incubated by gentle agitation for 90 min at room temperature and was terminated by filtration through Whatman GF/C filter plates using a Brandel 96-well plate harvester. Scintillation fluid (100 μl) was added to each well, and bound [^125I]-RTI-55 was determined using a Wallac Trilux Beta Plate Counter. Test compounds were run in duplicate, and specific binding was defined as the difference between binding in the presence and absence of 10 μM desipramine.
Excel and GraphPad Prism software were used for data calculation and analysis. IC50 values were converted to Ki values using the Cheng-Prusoff equation. The Ki values for the hNET are reported below in Table 1.

[2] = molecular target: T2, human serotonin transporter (Homo sapiens, UniProt P31645); test: hSERT receptor binding ([125I]-RTI-55, membranes of transfected HEK-293 cells); conditions: 50 pM [125I]-RTI-55, 90 min room temperature; IC50 converted by Cheng-Prusoff
T2 construct: host or cells: HEK-293
Protocol: as §1, with “serotonin” for “norepinephrine”, “Group.” for “group.”, “mL” for “ml”, “Setting” for “setting”, “seconds.” for “sec.”, “(˜2.5 mg/mL” for “(5 mg/ml”
Assays were set up in FlashPlates pre-coated with 0.1% PEI in a total volume of 250 μL containing: drug (10^−5M to 10^−12M), cell membranes, and 50 pM [^125I]-RTI-55 (Perkin Elmer, NEX-272; specific activity 2200 Ci/mmol). The reaction was incubated and gently agitated for 90 minutes at room temperature, and terminated by removal of assay volume. Plates were covered, and bound [^125I]-RTI-55 was determined using a Wallac Trilux Beta Plate Counter. Test compounds were run in duplicate, and specific binding was defined as the difference between binding in the presence and absence of 10 μM citalopram.
Excel and GraphPad Prism software were used for data calculation and analysis. IC50 values were converted to Ki values using the Cheng-Prusoff equation. The Ki values for the hSERT are reported below in Table 1.

T1 sequence (P23975 whole entry): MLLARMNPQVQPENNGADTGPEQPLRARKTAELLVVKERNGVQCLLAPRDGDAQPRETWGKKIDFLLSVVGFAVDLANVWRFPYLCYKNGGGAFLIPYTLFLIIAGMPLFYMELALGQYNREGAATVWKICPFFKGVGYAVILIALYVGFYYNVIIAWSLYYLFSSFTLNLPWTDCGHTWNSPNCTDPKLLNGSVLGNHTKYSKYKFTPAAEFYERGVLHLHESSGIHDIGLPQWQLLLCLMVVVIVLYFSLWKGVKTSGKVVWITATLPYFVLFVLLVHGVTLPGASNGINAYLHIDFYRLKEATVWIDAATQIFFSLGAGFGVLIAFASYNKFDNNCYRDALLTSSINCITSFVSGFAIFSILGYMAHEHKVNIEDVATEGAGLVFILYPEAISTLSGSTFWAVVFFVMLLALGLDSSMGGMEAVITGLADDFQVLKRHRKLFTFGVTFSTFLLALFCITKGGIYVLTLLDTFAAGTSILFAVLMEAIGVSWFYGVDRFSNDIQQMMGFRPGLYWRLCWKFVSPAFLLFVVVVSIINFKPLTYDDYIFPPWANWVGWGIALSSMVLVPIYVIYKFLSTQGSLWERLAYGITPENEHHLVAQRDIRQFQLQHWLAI
T2 sequence (P31645 whole entry): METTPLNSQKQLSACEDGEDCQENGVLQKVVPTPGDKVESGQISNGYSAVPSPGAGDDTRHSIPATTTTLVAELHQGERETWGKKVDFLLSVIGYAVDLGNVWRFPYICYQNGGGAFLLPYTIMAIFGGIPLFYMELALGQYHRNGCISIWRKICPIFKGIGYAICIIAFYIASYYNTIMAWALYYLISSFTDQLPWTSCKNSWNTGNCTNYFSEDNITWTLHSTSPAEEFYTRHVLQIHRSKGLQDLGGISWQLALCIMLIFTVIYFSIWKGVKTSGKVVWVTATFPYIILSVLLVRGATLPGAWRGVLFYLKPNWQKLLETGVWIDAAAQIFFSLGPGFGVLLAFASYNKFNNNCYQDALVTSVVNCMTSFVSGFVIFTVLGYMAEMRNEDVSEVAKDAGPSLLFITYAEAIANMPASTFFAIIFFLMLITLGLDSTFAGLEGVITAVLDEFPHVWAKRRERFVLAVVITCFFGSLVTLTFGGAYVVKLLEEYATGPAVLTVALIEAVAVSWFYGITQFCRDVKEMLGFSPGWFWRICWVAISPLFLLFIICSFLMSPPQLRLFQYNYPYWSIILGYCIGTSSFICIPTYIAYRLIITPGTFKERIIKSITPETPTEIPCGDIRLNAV

Row | pKi [1] | pKi [2] | Structure (SMILES)
1 | 7.42 | 6.50 | CN1CCN(c2nc(-c3c(F)cccc3F)c3ccc(F)cc3n2)CC1 [Example 83, 4-(2,6-Difluoro-phenyl)-7-fluoro-2-(4-methyl-piperazin-1-yl)-quinazoline]
2 | 7.30 | 6.19 | Fc1ccc2c(-c3c(F)cccc3F)nc(N[C@@H]3CCNC3)nc2c1 [Example 84, R-[4-(2,6-Difluoro-phenyl)-7-fluoro-quinazolin-2-yl]-pyrrolidin-3-yl-amine]
3 | 7.66 | 7.30 | N[C@@H]1CCN(c2nc(-c3c(F)cccc3F)c3ccc(F)cc3n2)C1 [Example 93, R-1-[4-(2,6-Difluoro-phenyl)-7-fluoro-quinazolin-2-yl]-pyrrolidin-3-ylamine]
4 | 7.63 | 7.80 | N[C@H]1CCN(c2nc(-c3c(F)cccc3F)c3ccc(F)cc3n2)C1 [Example 94, S-1-[4-(2,6-Difluoro-phenyl)-7-fluoro-quinazolin-2-yl]-pyrrolidin-3-ylamine]
5 | 7.70 | 7.49 | Fc1ccc2c(-c3c(F)cccc3F)nc(N3CCNCC3)nc2c1 [Example 98, 4-(2,6-Difluoro-phenyl)-7-fluoro-2-piperazin-1-yl-quinazoline]
6 | 7.34 | 5.54 | Fc1cccc(F)c1-c1nc(N[C@@H]2CCNC2)nc2ccccc12 [Example 99, R-[4-(2,6-Difluoro-phenyl)-quinazolin-2-yl]-pyrrolidin-3-yl-amine]
7 | 7.53 | 6.19 | Fc1ccc2c(-c3c(F)cccc3F)nc(N[C@H]3CCNC3)nc2c1 [Example 100, S-[4-(2,6-Difluoro-phenyl)-7-fluoro-quinazolin-2-yl]-pyrrolidin-3-yl-amine]
8 | 8.12 | 5.31 | Fc1cccc(F)c1-c1nc(N[C@H]2CCNC2)nc2ccccc12 [Example 101, S-[4-(2,6-Difluoro-phenyl)-quinazolin-2-yl]-pyrrolidin-3-yl-amine]
9 | 7.44 | 7.56 | C[C@@H]1CNCCN1c1nc(-c2c(F)cccc2F)c2ccc(F)cc2n1 [Example 104, R-4-(2,6-Difluoro-phenyl)-7-fluoro-2-(2-methyl-piperazin-1-yl)-quinazoline]
10 | 7.33 | 7.51 | C[C@H]1CNCCN1c1nc(-c2c(F)cccc2F)c2ccc(F)cc2n1 [Example 107, S-4-(2,6-Difluoro-phenyl)-7-fluoro-2-(2-methyl-piperazin-1-yl)-quinazoline]
11 | 7.73 | 7.43 | Fc1ccc2c(-c3cccc(F)c3F)nc(N3CCNCC3)nc2c1 [Example 111, 4-(2,3-Difluoro-phenyl)-7-fluoro-2-piperazin-1-yl-quinazoline]

Continued, molecule first:

Row | Structure (SMILES) | pKi [1] | pKi [2]
12 | C[C@H]1CNCCN1c1nc(-c2ccc(F)cc2F)c2ccccc2n1 [Example 82, S-4-(2,4-Difluoro-phenyl)-2-(2-methyl-piperazin-1-yl)-quinazoline] | 7.71 | 7.19
13 | C[C@H]1CNCCN1c1nc(-c2c(F)cccc2Cl)c2ccccc2n1 [Example 85, S-4-(2-Chloro-6-fluoro-phenyl)-2-(2-methyl-piperazin-1-yl)-quinazoline] | 7.58 | 6.58
14 | C[C@@H]1CNCCN1c1nc(-c2c(F)cccc2F)c2ccccc2n1 [Example 86, R-4-(2,6-Difluoro-phenyl)-2-(2-methyl-piperazin-1-yl)-quinazoline] | 7.84 | 7.05
15 | C[C@@H]1CNCCN1c1nc(-c2cccc(F)c2F)c2ccccc2n1 [Example 87, R-4-(2,3-Difluoro-phenyl)-2-(2-methyl-piperazin-1-yl)-quinazoline] | 7.70 | 7.00
16 | C[C@H]1CNCCN1c1nc(-c2cccc(F)c2F)c2ccccc2n1 [Example 88, S-4-(2,3-Difluoro-phenyl)-2-(2-methyl-piperazin-1-yl)-quinazoline] | 7.72 | 7.16
17 | Clc1ccc2c(-c3ccccc3)nc(N3CCNCC3)nc2c1 [Example 89, 7-Chloro-4-phenyl-2-piperazin-1-yl-quinazoline] | 7.31 | 6.96
18 | COc1cccc(-c2nc(N3CCNCC3)nc3ccccc23)c1 [Example 90, 4-(3-methoxy-phenyl)-2-piperazin-1-yl-quinazoline] | 7.84 | 6.82
19 | Brc1ccc2nc(N3CCNCC3)nc(-c3ccccc3)c2c1 [Example 91, 6-Bromo-4-phenyl-2-piperazin-1-yl-quinazoline] | 6.68 | 7.50
20 | Fc1ccc2nc(N3CCNCC3)nc(-c3ccccc3)c2c1 [Example 92, 6-Fluoro-4-phenyl-2-piperazin-1-yl-quinazoline] | 7.47 | 7.28
21 | N[C@@H]1CCN(c2nc(-c3c(F)cccc3F)c3ccccc3n2)C1 [Example 95, R-1-[4-(2,6-Difluoro-phenyl)-quinazolin-2-yl]-pyrrolidin-3-ylamine] | 7.11 | 6.49
22 | N[C@H]1CCN(c2nc(-c3c(F)cccc3F)c3ccccc3n2)C1 [Example 96, S-1-[4-(2,6-Difluoro-phenyl)-quinazolin-2-yl]-pyrrolidin-3-ylamine] | 7.91 | 7.15
23 | Fc1ccc2c(-c3ccccc3)nc(N3CCNCC3)nc2c1 [Example 97, 7-Fluoro-4-phenyl-2-piperazin-1-yl-quinazoline] | 7.86 | 7.30
24 | N[C@@H]1CCN(c2nc(-c3cccc(F)c3F)c3ccccc3n2)C1 [Example 102, R-1-[4-(2,3-Difluoro-phenyl)-quinazolin-2-yl]-pyrrolidin-3-ylamine] | 7.94 | 6.81
25 | CN1CCN(c2nc(-c3ccc(F)c(F)c3)c3ccccc3n2)CC1 [Example 103, 4-(3,4-Difluoro-phenyl)-2-(4-methyl-piperazin-1-yl)-quinazoline] | – | 6.19
26 | C[C@@H]1CNCCN1c1nc(-c2ccccc2)c2ccc(F)cc2n1 [Example 105, R-7-Fluoro-2-(2-methyl-piperazin-1-yl)-4-phenyl-quinazoline] | 7.78 | 7.19
27 | C[C@H]1CNCCN1c1nc(-c2ccccc2)c2ccc(F)cc2n1 [Example 106, S-′7-Fluoro-2-(2-methyl-piperazin-1-yl)-4-phenyl-quinazoline] | 7.74 | 7.30
28 | Fc1ccc(-c2nc(N3CCNCC3)nc3ccccc23)cc1F [Example 108, 4-(3,4-difluoro-phenyl)-2-piperazin-1-yl-quinazoline] | 8.11 | 7.11
29 | N[C@H]1CCN(c2nc(-c3cccc(F)c3F)c3ccc(F)cc3n2)C1 [Example 109, S-1-[4-(2,3-Difluoro-phenyl)-7-fluoro-quinazolin-2-yl]-pyrrolidin-3-yl-amine] | 7.86 | 7.52
30 | N[C@@H]1CCN(c2nc(-c3cccc(F)c3F)c3ccc(F)cc3n2)C1 [Example 110, R-1-[4-(2,3-Difluoro-phenyl)-7-fluoro-quinazolin-2-yl]-pyrrolidin-3-yl-amine] | 7.87 | 7.24
31 | CN1CCN(c2nc(-c3ccc(F)c(F)c3)c3ccc(F)cc3n2)CC1 [Example 112, 4-(3,4-Difluoro-phenyl)-7-fluoro-2-(4-methyl-piperazin-1-yl)-quinazoline] | 6.15 | 6.69
32 | CN1CCN(c2nc(-c3ccc(F)c(F)c3)c3ccccc3n2)CC1 [Example 114, 4-(3,4-Difluoro-phenyl)-2-(4-methyl-piperazin-1-yl)-quinazoline] | – | 5.96
